pIC50: −log10 of the molar value.
Biological target: CaMKK2 (Homo sapiens, UniProt Q96RR4)
Experiment: CaMKK2 binding assay (LanthaScreen TR-FRET)
Conditions: not given
Experimental: The ability of test compounds to bind and inhibit the activity of CaMKK2 were determined using a binding assay using LanthaScreent (Thermofisher) detection reagents in a 384-well plate format using the following assay buffer: 50 mM HEPES (pH7.5), 10 mM MgCl2, 1 mM EGTA, and 0.01% Brij-35.
A 10-point serial dilution of inhibitor compound in 0.5% DMSO was added to each well of the plate. The final assay volume in well was 15 uL. […] A ratio was calculated from the 2 readouts and fitted to a 4-parameter fit to determine the binding IC50.

CaMKK2, sequence (Q96RR4 whole entry): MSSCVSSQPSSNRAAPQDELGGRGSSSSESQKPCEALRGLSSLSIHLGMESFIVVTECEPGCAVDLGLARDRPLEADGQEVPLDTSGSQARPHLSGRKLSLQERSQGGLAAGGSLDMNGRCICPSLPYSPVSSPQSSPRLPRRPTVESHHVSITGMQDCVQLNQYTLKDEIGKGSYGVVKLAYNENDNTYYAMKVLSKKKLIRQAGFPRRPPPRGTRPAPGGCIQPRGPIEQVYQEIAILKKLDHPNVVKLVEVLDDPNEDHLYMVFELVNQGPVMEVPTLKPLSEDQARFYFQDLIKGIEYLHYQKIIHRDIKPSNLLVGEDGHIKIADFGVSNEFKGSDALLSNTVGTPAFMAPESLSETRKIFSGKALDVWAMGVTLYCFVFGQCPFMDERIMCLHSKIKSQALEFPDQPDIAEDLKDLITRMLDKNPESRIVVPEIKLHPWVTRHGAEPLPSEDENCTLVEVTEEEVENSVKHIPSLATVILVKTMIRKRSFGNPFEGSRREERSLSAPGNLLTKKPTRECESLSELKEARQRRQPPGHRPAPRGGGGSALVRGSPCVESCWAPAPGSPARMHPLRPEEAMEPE

pIC50 | Compound
> 7.00 | Cc1cc(C)cc(-c2cnc3ccn(-c4ccc(C(=O)O)c(C5CCNC5)c4)c3n2)c1 (single isomer, unassigned) [Example 26]
> 7.00 | Cc1cc(C)cc(-c2cnc3ccn(-c4ccc(C(=O)O)c(C5CCCNC5)c4)c3n2)c1 (single isomer, unassigned) [Example 28]
> 7.00 | Cc1cccc(-c2cc3c(-c4ccc(C(=O)O)c(C5CCCC5)c4)ccnn3c2)c1 [Example 4.2, 2-Cyclopentyl-4-[6-(m-tolyl)pyrrolo[1,2-b]pyridazin-4-yl]benzoic Acid]
> 7.00 | O=C(O)c1ccc(-c2ccnn3cc(-c4ccccc4F)cc23)cc1C1CCCC1 [Example 4.3, 2-Cyclopentyl-4-[6-(2-fluorophenyl)pyrrolo[1,2-b]pyridazin-4-yl]benzoic Acid]
> 7.00 | Cn1ncc2cc(-c3cnc4ccn(-c5ccc(C(=O)O)c(NCC6CC6)c5)c4n3)c(F)cc21 [Example 8, 2-((Cyclopropylmethyl)amino)-4-(3-(6-fluoro-1-methyl-1H-indazol-5-yl)-5H-pyrrolo[2,3-b]pyrazin-5-yl)benzoic Acid]
> 7.00 | O=C(O)c1ccc(-n2ccc3ncc(-c4ccc(F)cc4F)nc32)cc1NC1CC1 [Example 10, 2-(Cyclopropylamino)-4-(3-(2,4-difluorophenyl)-5H-pyrrolo[2,3-b]pyrazin-5-yl)benzoic Acid]
> 7.00 | O=C(O)c1ccc(-n2ccc3ncc(-c4ccc(F)cc4)nc32)cc1NCC1CC1 [Example 11, 2-((Cyclopropylmethyl)amino)-4-(3-(4-fluorophenyl)-5H-pyrrolo[2,3-b]pyrazin-5-yl)benzoic Acid]
> 7.00 | CCNc1cc(-n2ccc3ncc(-c4ccc5c(cnn5C)c4)nc32)ccc1C(=O)O [Example 14, 2-(Ethylamino)-4-(3-(1-methyl-1H-indazol-5-yl)-5H-pyrrolo[2,3-b]pyrazin-5-yl)benzoic Acid]
> 7.00 | O=C(O)c1ccc(-n2ccc3ncc(-c4ccc(F)cc4)nc32)cc1NC1CC1 [Example 15, 2-(Cyclopropylamino)-4-(3-(4-fluorophenyl)-5H-pyrrolo[2,3-b]pyrazin-5-yl)benzoic Acid]
> 7.00 | CCNc1cc(-n2ccc3ncc(-c4ccc5cn(C)nc5c4)nc32)ccc1C(=O)O [Example 16, 2-(Ethylamino)-4-(3-(2-methyl-2H-indazol-6-yl)-5H-pyrrolo[2,3-b]pyrazin-5-yl)benzoic Acid]
> 7.00 | Cn1cc2ccc(-c3cnc4ccn(-c5ccc(C(=O)O)c(NCC6CC6)c5)c4n3)cc2n1 [Example 17, 2-((Cyclopropylmethyl)amino)-4-(3-(2-methyl-2H-indazol-6-yl)-5H-pyrrolo[2,3-b]pyrazin-5-yl)benzoic Acid]
6.00 to 7.00 | O=C(NS(=O)(=O)C(F)(F)F)c1ccc(-n2ccc3ncc(C4CC4)nc32)cc1C1CCCC1 [Example 21, 2-Cyclopentyl-4-(3-cyclopropyl-5H-pyrrolo[2,3-b]pyrazin-5-yl)-N-((trifluoromethyl)sulfonyl)benzamide]
5.00 to 6.00 | N#Cc1ccc(-n2ccc3ncc(-c4ccccc4)nc32)cc1C1CCCC1 [Example 22, 2-Cyclopentyl-4-(3-phenyl-5H-pyrrolo[2,3-b]pyrazin-5-yl)benzonitrile]
> 7.00 | c1ccc(-c2cnc3ccn(-c4ccc(-c5nn[nH]n5)c(C5CCCC5)c4)c3n2)cc1 [Example 23, 5-(3-Cyclopentyl-4-(2H-tetrazol-5-yl)phenyl)-3-phenyl-5H-pyrrolo[2,3-b]pyrazine]
> 7.00 | Cc1cc(C)cc(-c2cnc3ccn(-c4ccc(C(=O)O)c(NC5CNC5)c4)c3n2)c1 [Example 25, 2-(azetidin-3-ylamino)-4-(3-(3,5-dimethylphenyl)-5H-pyrrolo[2,3-b]pyrazin-5-yl)benzoic Acid]
> 7.00 | Cc1cc(C)cc(-c2cnc3ccn(-c4ccc(C(=O)O)c(CC5CNC5)c4)c3n2)c1 [Example 27, 2-(azetidin-3-ylmethyl)-4-(3-(3,5-dimethylphenyl)-5H-pyrrolo[2,3-b]pyrazin-5-yl) benzoic Acid]
> 7.00 | Cc1cc(C)cc(-c2cnc3ccn(-c4ccc(C(=O)O)c(C5CCNCC5)c4)c3n2)c1 [Example 29, 4-(3-(3,5-dimethylphenyl)-5H-pyrrolo[2,3-b]pyrazin-5-yl)-2-(piperidin-4-yl)benzoic Acid]
> 7.00 | Cc1cc(C)cc(-c2cnc3ccn(-c4ccc(C(=O)O)c(N[C@@H]5CCNC5)c4)c3n2)c1 [Example 31, (R)-4-(3-(3,5-dimethylphenyl)-5H-pyrrolo[2,3-b]pyrazin-5-yl)-2-(pyrrolidin-3-ylamino)benzoic Acid]

More lines, now with the values behind:

Compound | pIC50
O=C(O)c1ccc(-c2ccnc3cc(C4CC4)nn23)cc1C1CCCC1 [Example 2.1, 2-Cyclopentyl-4-(2-cyclopropylpyrazolo[1,5-a]pyrimidin-7-yl)benzoic Acid] | > 7.00
COc1cc2nccc(-c3ccc(C(=O)O)c(C4CCCC4)c3)n2n1 [Example 2.3, 2-Cyclopentyl-4-(2-methoxypyrazolo[1,5-a]pyrimidin-7-yl)benzoic Acid] | > 7.00
CCOc1cc2nccc(-c3ccc(C(=O)O)c(C4CCCC4)c3)n2n1 [Example 2.4, 2-Cyclopentyl-4-(2-ethoxypyrazolo[1,5-a]pyrimidin-7-yl)benzoic Acid] | > 7.00
O=C(O)c1ccc(-c2ccnc3cc(-c4ccc(F)cc4)nn23)cc1C1CCCC1 [Example 2.5, 2-Cyclopentyl-4-(2-(4-fluorophenyl)pyrazolo[1,5-a]pyrimidin-7-yl)benzoic Acid] | > 7.00
O=C(O)c1ccc(-c2ccnc3cc(-c4cccc(F)c4)nn23)cc1C1CCCC1 [Example 2.7, 2-Cyclopentyl-4-(2-(3-fluorophenyl)pyrazolo[1,5-a]pyrimidin-7-yl)benzoic Acid] | > 7.00
COc1ccc(-c2cc3nccc(-c4ccc(C(=O)O)c(C5CCCC5)c4)n3n2)cc1 [Example 2.8, 2-Cyclopentyl-4-(2-(4-methoxyphenyl)pyrazolo[1,5-a]pyrimidin-7-yl)benzoic Acid] | > 7.00
COc1cccc(-c2cc3nccc(-c4ccc(C(=O)O)c(C5CCCC5)c4)n3n2)c1 [Example 2.9, 2-Cyclopentyl-4-(2-(3-methoxyphenyl)pyrazolo[1,5-a]pyrimidin-7-yl)benzoic Acid] | > 7.00
Cn1cc(-c2cc3nccc(-c4ccc(C(=O)O)c(C5CCCC5)c4)n3n2)cn1 [Example 2.12, 2-Cyclopentyl-4-(2-(1-methyl-H-pyrazol-4-yl)pyrazolo[1,5-a]pyrimidin-7-yl)benzoic Acid] | > 7.00
COc1cc(-c2ccnc3cc(-c4ccc(F)cc4)nn23)ccc1C(=O)N[C@H](CO)c1ccccc1 [Example 2.13, (S)-4-(2-(4-Fluorophenyl)pyrazolo[1,5-a]pyrimidin-7-yl)-N-(2-hydroxy-1-phenylethyl)-2-methoxybenzamide] | > 7.00
Cc1cc(-n2cc3ncc(F)c(-c4ccc(C(=O)O)c(C5CCCC5)c4)c3n2)cc(C(F)(F)F)c1 [Example 3.8, 2-Cyclopentyl-4-(6-fluoro-2-(3-methyl-5-(trifluoromethyl)phenyl)-2H-pyrazolo[4,3-b]pyridin-7-yl)benzoic Acid] | > 7.00
O=C(O)c1ccc(-c2c(F)cnc3cn(-c4cc(F)cc(Cl)c4)nc23)cc1C1CCCC1 [Example 3.10, 4-(2-(3-Chloro-5-fluorophenyl)-6-fluoro-2H-pyrazolo[4,3-b]pyridin-7-yl)-2-cyclopentylbenzoic Acid] | > 7.00
Cc1cc(F)cc(-n2cc3ncc(F)c(-c4ccc(C(=O)O)c(C5CCCC5)c4)c3n2)c1 [Example 3.11, 2-Cyclopentyl-4-(6-fluoro-2-(3-fluoro-5-methylphenyl)-2H-pyrazolo[4,3-b]pyridin-7-yl)benzoic Acid] | > 7.00
COc1cc(-n2cc3ncc(F)c(-c4ccc(C(=O)O)c(C5CCCC5)c4)c3n2)cc(C(F)(F)F)c1 [Example 3.13, 2-Cyclopentyl-4-(6-fluoro-2-(3-methoxy-5-(trifluoromethyl)phenyl)-2H-pyrazolo[4,3-b]pyridin-7-yl)benzoic Acid] | > 7.00
O=C(O)c1ccc(-c2c(F)cnc3cn(-c4cc(F)cc(C(F)(F)F)c4)nc23)cc1C1CCCC1 [Example 3.14, 2-Cyclopentyl-4-(6-fluoro-2-(3-fluoro-5-(trifluoromethyl)phenyl)-2H-pyrazolo[4,3-b]pyridin-7-yl)benzoic Acid] | > 7.00
O=C(O)c1ccc(-c2c(F)cnc3cn(-c4cc(Cl)cc(C(F)(F)F)c4)nc23)cc1C1CCCC1 [Example 3.15, 4-(2-(3-Chloro-5-(trifluoromethyl)phenyl)-6-fluoro-2H-pyrazolo[4,3-b]pyridin-7-yl)-2-cyclopentylbenzoic] | > 7.00
COc1cc(-c2ccnc3cn(-c4ccc(F)cc4)nc23)ccc1C(=O)N[C@H](CO)c1ccccc1 [Example 3.19, (S)-4-(2-(4-fluorophenyl)-2H-pyrazolo[4,3-b]pyridin-7-yl)-N-(2-hydroxy-1-phenylethyl)-2-methoxybenzamide] | > 7.00
N#CNC(=O)c1ccc(-c2ccnc3cn(-c4ccc(F)cc4)nc23)cc1C1CCCC1 [Example 3.20, N-Cyano-2-cyclopentyl-4-(2-(4-fluorophenyl)-2H-pyrazolo[4,3-b]pyridin-7-yl)benzamide] | > 7.00
O=C(O)c1ccc(-c2c(F)cnc3cn(-c4ccc(F)cc4)nc23)cc1NC1CC1 [Example 3.21, 2-(Cyclopropylamino)-4-(6-fluoro-2-(4-fluorophenyl)-2H-pyrazolo[4,3-b]pyridin-7-yl)benzoic Acid] | > 7.00
Cc1cccc(-c2cnc3ccn(-c4ccc(C(=O)O)c(C5CCCC5)c4)c3n2)c1 [Example 4, 2-Cyclopentyl-4-(3-(m-tolyl)-5H-pyrrolo[2,3-b]pyrazin-5-yl)benzoic Acid] | > 7.00

Same assay, conditions: binding IC50, 1 nM CaMKK2, 5 nM Kinase tracer 236, 20 minutes

Compound | pIC50
2-((azetidin-3-ylmethyl)amino)-4-(3-(3,5-dimethylphenyl)-5H-pyrrolo[2,3-b]pyrazin-5-yl)benzoic Acid [Example 30] | > 7.00

— patent US20240246969A1, “HETEROCYCLIC DERIVATIVES AS CAMKK2 INHIBITORS” (Bristol-Myers Squibb Company, priority 2021, published 2024)
